Article PMC7754409 (Journal of Clinical Pharmacology, 2020)
Where two headings read alike, the source gives them in different places.

Assays:
[1] = cited from earlier work
[2] = format: in vivo, human; settings: for AUC(0-inf): human, plasma, AUCinf, GM (CV%), total AUCinf; for distribution of exposure (AUCinf, Cmax) across Child-Pugh classifications: subjects with normal NCIc, box plots Figures 2A, 3
[3] = any degree of HI based on Child-Pugh
[4] = Child-Pugh mild and moderate HI

Row | SMILES | higher AUCinf compared with normal NCIc hepatic function ([2]; NCIc mild HI) | AUC(0-inf) ([2]; Child-Pugh mild HI group) | AUC(0-inf) ([2]; Child-Pugh moderate HI group) | AUC(0-inf) ([2]; Child-Pugh severe HI group) | AUC(0-inf) ([2]; NCIc mild group) | AUC(0-inf) ([2]; NCIc moderate group) | AUC(0-inf) ([2]; NCIc normal group) | AUC(0-inf) ([2]; NCIc severe group) | distribution of exposure (AUCinf, Cmax) across Child-Pugh classifications [2] | AUCinf in Child-Pugh mild HI compared with Child-Pugh normal ([2]; within subjects with normal NCI hepatic function) | unbound AUCinf of mild group compared with normal hepatic function ([2]; via either classification (Child-Pugh or NCIc)) | exposure (AUCinf and Cmax) of mild and moderate groups compared with normal hepatic function ([2]; based on either classification system (Child-Pugh or NCIc)) | higher exposure compared with normal hepatic function [1, 3] | plasma elimination half-life compared with normal hepatic function [1, 3] | mean fraction unbound in plasma ([1]; across Child-Pugh hepatic function groups) | effect of HI on axitinib exposure (Cmax and AUCinf) versus normal ([1]; Child-Pugh mild HI) | higher AUCinf (exposure) compared with normal ([1]; Child-Pugh moderate HI) | effect of HI on sunitinib exposure (AUCinf and Cmax) versus normal [1, 4] | effect of HI on dacomitinib exposure versus normal [1, 4]
1 | COc1cc(Nc2c(C#N)cnc3cc(OCCCN4CCN(C)CC4)c(OC)cc23)c(Cl)cc1Cl [Bosutinib, bosutinib] | 40% | 1940 ng·h/mL | 1730 ng·h/mL | 1660 ng·h/mL | 1580 ng·h/mL | 1860 ng·h/mL | 1130 ng·h/mL | 1350 ng·h/mL | higher exposure | ~2 fold | – | – | ~2 fold | longer | – | – | – | – | –
2 | CNC(=O)c1ccccc1Sc1ccc2c(/C=C/c3ccccn3)n[nH]c2c1 [Axitinib, axitinib] | – | 122 ng·h/mL | 304 ng·h/mL | – | 210 ng·h/mL | 410 ng·h/mL | 137 ng·h/mL | – | appeared similar | – | – | – | – | – | – | did not affect | 2 fold | – | –

Second part, led by results:

Row | higher AUCinf compared with normal NCIc hepatic function ([2]; NCIc mild HI) | AUC(0-inf) ([2]; Child-Pugh mild HI group) | AUC(0-inf) ([2]; Child-Pugh moderate HI group) | AUC(0-inf) ([2]; Child-Pugh severe HI group) | AUC(0-inf) ([2]; NCIc mild group) | AUC(0-inf) ([2]; NCIc moderate group) | AUC(0-inf) ([2]; NCIc normal group) | AUC(0-inf) ([2]; NCIc severe group) | distribution of exposure (AUCinf, Cmax) across Child-Pugh classifications [2] | AUCinf in Child-Pugh mild HI compared with Child-Pugh normal ([2]; within subjects with normal NCI hepatic function) | unbound AUCinf of mild group compared with normal hepatic function ([2]; via either classification (Child-Pugh or NCIc)) | exposure (AUCinf and Cmax) of mild and moderate groups compared with normal hepatic function ([2]; based on either classification system (Child-Pugh or NCIc)) | SMILES | higher exposure compared with normal hepatic function [1, 3] | plasma elimination half-life compared with normal hepatic function [1, 3] | mean fraction unbound in plasma ([1]; across Child-Pugh hepatic function groups) | effect of HI on axitinib exposure (Cmax and AUCinf) versus normal ([1]; Child-Pugh mild HI) | higher AUCinf (exposure) compared with normal ([1]; Child-Pugh moderate HI) | effect of HI on sunitinib exposure (AUCinf and Cmax) versus normal [1, 4] | effect of HI on dacomitinib exposure versus normal [1, 4]
3 | – | – | – | – | – | – | – | – | – | – | overall similar | – | CC(=O)c1c(C)c2cnc(Nc3ccc(N4CCNCC4)cn3)nc2n(C2CCCC2)c1=O [Palbociclib, palbociclib] | – | – | increased with worsening hepatic function | – | – | – | –
4 | – | 1510 ng·h/mL | 1480 ng·h/mL | – | 1690 ng·h/mL | 1530 ng·h/mL | 1340 ng·h/mL | – | – | – | – | – | CCN(CC)CCNC(=O)c1c(C)[nH]c(/C=C2\C(=O)Nc3ccc(F)cc32)c1C [Sunitinib, sunitinib] | – | – | – | – | – | did not alter | –
5 | – | 811 ng·h/mL | 682 ng·h/mL | – | 753 ng·h/mL | 583 ng·h/mL | 800 ng·h/mL | 685 ng·h/mL | – | – | – | similar | COc1cc2ncnc(Nc3ccc(F)c(Cl)c3)c2cc1NC(=O)/C=C/CN1CCCCC1 [Dacomitinib, dacomitinib] | – | – | – | – | – | – | did not alter
